Assay results: US20240391928A1, “COMPOSITIONS FOR THE TREATMENT OF FOOD AND CHEMICAL ADDICTION AND METHODS OF MAKING AND USING SAME” (Duke University, priority 2021, published 2024)

Experiments:
[1] = target: T1, hGHSR1a^WT in Gαq/11 KO HEK293/S cells (Homo sapiens, UniProt Q92847); test: iCa2+ in Gαq/11 KO HEK293/S cells; format: cell-based; conditions: 10 μM ligand
T1 construct: expressed in transfected cells; SRF-RE reporter); HEK293/S Gαq/11 KO and parental WT (iCa2+)
Method: For experiments with WT and Gt KO HEK293/S cells, […] of hGHSR1a^WT, 10 μg of miAEQ, and 2.5 μg of pcDNA3.1 was transiently transfected into 10 cm dishes and incubated overnight. […] Twenty-four hours later, experiments proceeded in accordance with the procedures described above. To control for any possible kinetic differences in genetically modified cell lines or GHSR1a variants, the average ligand-induced response over 10 seconds was calculated, then normalized by dividing the L-miAeq by the L-miAeq plus the Lysis-miAeq and normalized to the appropriate control/reference condition.

human GHSR1a^WT (Gαq) = human GHSR1a^WT (Gαq) (Homo sapiens, UniProt Q92847); test: TRUPATH (BRET) Gαq dissociation
human GHSR1a^WT (Gαq), sequence (Q92847 whole entry): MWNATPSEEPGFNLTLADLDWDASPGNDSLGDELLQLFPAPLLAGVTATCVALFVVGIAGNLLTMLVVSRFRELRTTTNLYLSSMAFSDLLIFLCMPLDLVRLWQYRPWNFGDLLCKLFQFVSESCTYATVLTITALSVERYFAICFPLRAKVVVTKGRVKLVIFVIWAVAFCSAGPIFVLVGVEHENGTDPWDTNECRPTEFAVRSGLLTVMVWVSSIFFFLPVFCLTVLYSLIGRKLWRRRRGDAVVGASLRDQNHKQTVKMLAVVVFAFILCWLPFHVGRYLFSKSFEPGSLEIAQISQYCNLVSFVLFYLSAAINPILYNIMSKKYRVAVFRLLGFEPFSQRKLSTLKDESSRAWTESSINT
Method: BRET-based Gαq Dissociation & β-arr2 Recruitment Assays. TRUPATH Gα dissociation: Gαq/i1/i2/OA/12/13/sS^RLuc8 and Gγ8^GFP2 or Gγ9^GFP2 were transiently co-transfected with human 3×HA-GHSR1a^WT and untagged Gβ3 at a 1:1:1:1 ratio (100 μg each) into monolayers of HEK293/T cells along with 1.6 μg pcDNA3.1. The next morning, media (DMEM supplemented with 10% FBS and antibiotic/antimycotic) was exchanged and after 4-6 hours, cells were plated on white 96-well, clear-bottomed assay plates at a density of 40,000-50,000 cells/well in opti-MEM supplemented with 2% FBS and antibiotic/antimycotic. The next morning, opti-MEM was removed and cells were incubated with 80 μL HBSS supplemented with 20 mM HEPES (pH 7.4) for 4 hours. Cells were then treated with 10 μL of the luminescent substrate, coelenterazine 400a (5 μM final), for 5 minutes at room temperature prior to the addition of 10 μL of test compound. Five minutes after ligand application, luminescence was measured by a Mithras 940 plate reader over 30 minutes and the maximal response was utilized for generating all C/R curves.

T1 sequence (Q92847 whole entry): as above

With `COc1ccc(C(=O)c2c(C(=O)NCCCN(C)C)oc3ccc(Cl)cc3c2=O)cc1OC` [Example N8279, 6-Chloro-3-(3,4-dimethoxybenzoyl)-N-(3-(dimethylamino)propyl)-4-oxo-4H-chromene-2-carboxamide] the “agonist-induced iCa2+ in Gαq/11 KO cells” value [1] was “abolished”, the “BRET-Gαq potency, fold less potent than L585” value (human GHSR1a^WT (Gαq)) was 1.7 fold and the “BRET-Gαq potency, fold less potent than ghrelin” value (human GHSR1a^WT (Gαq)) was 6.1 fold. For the same compound, the “Gαq activation efficacy in words” value (human GHSR1a^WT (Gαq); NanoBiT and BRET (TRUPATH) assays) was “full agonist”.
